# Measurements taken from patent publication US6548516B1, “1-(3-heteroarylpropyl- or -prop-2-enyl)-4-benzylpiperidines used as NMDA receptor antagonists” (Merck Patent GmbH, priority 1998, dated 2003).
row,Compound,melting point
1,"O=c1[nH]c2ccc(CCCN3CCC(Cc4ccc(F)cc4)CC3)cc2o1 [Example 1, 6-{3-[4-(4-fluorobenzyl)piperid-1-yl]propyl}-3H-benzoxazol-2-one]",105 to 107 °C
2,"O=c1[nH]c2ccc(C=CCN3CCC(Cc4ccc(F)cc4)CC3)cc2o1 [Example 2, 6-{3-[4-(4-fluorobenzyl)piperid-1-yl]propenyl}-3H-benzoxazol-2-one]",202 to 203.5 °C
